# Assay results published in patent US20260108483A1, “METHODS AND COMPOSITIONS FOR PREVENTING THE PROGRESSION OF DIABETIC RETINOPATHY AND RELATED CONDITIONS” (Opus Genetics, Inc., priority 2023, published 2026).
# How the values were obtained:
# [1] = Clinical study safety: alanine aminotransferase in subjects' blood; assay type: in vivo, human; settings: combined placebo + Compound 1 patients; for Mean Concentration of Alanine Aminotransferase in Subjects' Blood: Baseline 22.4
# Description: (§1) The study was configured as a placebo-controlled, double-masked, randomized, Phase 2 study in approximately 100 subjects with moderately severe to severe NPDR (diabetic retinopathy severity score [DRSS] Level 47 or 53, see FIG. 1) or mild PDR (DRSS Level 61), evaluating safety and efficacy following administration of Compound 1 twice daily for 24 weeks. The study was configured for a 1:1 randomization (placebo: Compound 1). Randomization was stratified by level of disease severity (NPDR or PDR). Subjects with mild PDR were capped at 20% for each arm. Efficacy evaluations at 12 and/or 24 weeks included DRSS, center-involved diabetic macular edema (DME), moderate PDR or PDR-related adverse events (AEs), best-corrected visual acuity (BCVA), and central subfield thickness (CST). Further experimental procedures and results are described below.
# (§2) At the Qualification/Baseline (Visit 2, Day 1): • The subject was randomized into the study. • Study medication was dispensed in accordance with the subjects randomized treatment arm. • Blood samples were drawn pre-dose for baseline levels and on Visit 9 (Week 24) for exploratory biomarker processing (i.e., cytokine and Ref-1 levels) to evaluate pharmacodynamic properties. • Subjects were instructed to administer their study medication (Compound 1 or placebo) each day, with 3 tablets every morning and 2 tablets every evening. Study medication was to be taken at approximately the same time each day and may be taken with or without food.
# At the Second Treatment Visit (Visit 6, Week 12±2 Days), subjects were to return to the site for the following series of safety and efficacy assessments: drug accountability, concomitant medications, urine pregnancy test (only for women of childbearing potential), HR/BP/vital signs, BCVA (ETDRS), DRSS, CST (SD-OCT), blood draw for PK, blood chemistry, blood hematology, biomicroscopy, ophthalmoscopy, IOP, eGFR, and AEs. Following the completion of the assessments, used medication kits were collected for accountability (by counting the number of unused tablets), and new study medication kits dispensed.
# At the Third Treatment Visit (Visit 9, Week 24±2 Days), subjects were to return to the site for the following series of safety and efficacy assessments: drug accountability, concomitant medications, urine pregnancy test (only for women of childbearing potential), physical examination, HR/BP/vital signs, BCVA (ETDRS), DRSS, CST (SD-OCT), blood chemistry, blood hematology, biomicroscopy, ophthalmoscopy, IOP, eGFR, AEs, and blood draw for exploratory biomarkers (ELISA, cytokine panel, comprehensive metabolic panel). Visit 9 (Week 24) was the end of the treatment period. Study medication was returned for accountability (by counting the number of unused tablets), and no further study medication dispensed.
# Safety endpoints include: • Incidence and severity of systemic and ocular AEs, • Change from baseline in body system assessments, • Change from baseline in vital sign measurements, • Change from baseline in clinical laboratory assay results (blood chemistry, hematology), • Change from baseline in intraocular pressure (IOP), • Change from baseline in slit-lamp examination parameters, • Change from baseline in dilated funduscopic examination parameters, • Percent of subjects with a decrease of ≥10 letters in BCVA compared to baseline at Week 12 and Week 24, • Percent of subjects progressing to center-involved DME (eligible for rescue treatment at Week 12 and Week 24), • Percent of subjects with a worsening in DRSS of ≥2 steps in the study eye at Week 12 and Week 24, • Percent of subjects developing anterior segment neovascularization at Week 12 and Week 24, • Percent of subjects rescued (intravitreal anti-VEGF injection, laser PRP, focal/grid laser treatment, or surgery [vitrectomy]) at the discretion of the Investigator at Week 12 and Week 24, and • Change from baseline in estimated glomerular filtration rate (eGFR) at Week 12 and Week 24. […]
# [2] = Clinical study safety: treatment-emergent adverse events; assay type: in vivo, human
# Description: as §1, §2
# Safety endpoints include: • Incidence and severity of systemic and ocular AEs, • Change from baseline in body system assessments, • Change from baseline in vital sign measurements, • Change from baseline in clinical laboratory assay results (blood chemistry, hematology), • Change from baseline in intraocular pressure (IOP), • Change from baseline in slit-lamp examination parameters, • Change from baseline in dilated funduscopic examination parameters, • Percent of subjects with a decrease of ≥10 letters in BCVA compared to baseline at Week 12 and Week 24, • Percent of subjects progressing to center-involved DME (eligible for rescue treatment at Week 12 and Week 24), • Percent of subjects with a worsening in DRSS of ≥2 steps in the study eye at Week 12 and Week 24, • Percent of subjects developing anterior segment neovascularization at Week 12 and Week 24, • Percent of subjects rescued (intravitreal anti-VEGF injection, laser PRP, focal/grid laser treatment, or surgery [vitrectomy]) at the discretion of the Investigator at Week 12 and Week 24, and • Change from baseline in estimated glomerular filtration rate (eGFR) at Week 12 and Week 24.
# Analysis populations included: • Modified Intention-to-Treat (mITT): The mITT includes all randomized subjects who received at least one dose of study treatment and at least one post-dose efficacy measurement. […] The PP population will be used for primary endpoint analysis and to analyze efficacy endpoints. • All Randomized Population (ARP): The ARP includes all randomized subjects. This population is also known as the Intent-to-Treat (ITT) population. The ARP will be used in confirmatory efficacy analyses. • Safety Population (SP): The SP includes all randomized subjects who have received at least one dose of study treatment. The SP was used to summarize safety variables.
# Provided below is data on safety on Compound 1 orally administered to patients according to the study protocol described herein. The data is from one-hundred patients that were enrolled in the trial. Per the study protocol described above, patients enrolled in the study were randomized 1:1 for receipt of placebo versus Compound 1. The safety data below is the combined results from patients that received placebo and those received Compound 1.
# Table 9 below provides a summary of occurrence of adverse events across 100 subjects enrolled in the study, which is the combined results from patients that received placebo and those that received Compound 1. […]
# [3] = 100 subjects, combined placebo + Compound 1, bilateral ocular events counted twice
# [4] = 100 subjects, combined placebo + Compound 1 patients
smiles,measurement,setting,value
"CCCCCCCCC/C(=C\C1=C(C)C(=O)C(OC)=C(OC)C1=O)C(=O)O [Compound 1, (E)-2-((4,5-dimethoxy-2-methyl-3,6-dioxocyclohexa-1,4-dien-1-yl)methylene)undecanoic acid]",Mean Concentration of Alanine Aminotransferase in Subjects' Blood,"[1]; Week 12, 53 subjects",21.6 IU/L
same,Mean Concentration of Alanine Aminotransferase in Subjects' Blood,"[1]; Week 24, 24 subjects",20.4 IU/L
same,change in mean concentration of alanine aminotransferase relative to Baseline,"[1]; week 12, 50 subjects",−0.8 IU/L
same,reduction in mean concentration of alanine aminotransferase relative to Baseline,"[1]; week 12, 50 subjects",3.6%
same,change in mean concentration of alanine aminotransferase relative to Baseline,"[1]; week 24, 22 subjects",−2.1 IU/L
same,reduction in mean concentration of alanine aminotransferase relative to Baseline,"[1]; week 24, 22 subjects",9.4%
same,No. of Subjects That Experienced a Treatment-Emergent Adverse the Category: Anterior (eye disorder),[2]; [3],5
same,No. of Subjects That Experienced a Treatment-Emergent Adverse the Category: Posterior (eye disorder),[2]; [3],9
same,No. of Subjects That Experienced a Treatment-Emergent Adverse the Category: Blood or lymphatic system disorder,[2]; [4],1
same,No. of Subjects That Experienced a Treatment-Emergent Adverse the Category: Cardiac disorder,[2]; [4],1
same,No. of Subjects That Experienced a Treatment-Emergent Adverse the Category: Ear or labyrinth disorder,[2]; [4],1
same,No. of Subjects That Experienced a Treatment-Emergent Adverse the Category: Eye disorder,[2]; [4],9
same,No. of Subjects That Experienced a Treatment-Emergent Adverse the Category: Gastrointestinal disorder,[2]; [4],9
same,No. of Subjects That Experienced a Treatment-Emergent Adverse the Category: General disorders or administration site condition,[2]; [4],1
same,No. of Subjects That Experienced a Treatment-Emergent Adverse the Category: Hepatobiliary disorder,[2]; [4],1
same,No. of Subjects That Experienced a Treatment-Emergent Adverse the Category: Infection or infestation,[2]; [4],9
same,"No. of Subjects That Experienced a Treatment-Emergent Adverse the Category: Injury, poisoning, or procedural complication",[2]; [4],1
same,No. of Subjects That Experienced a Treatment-Emergent Adverse the Category: Investigation,[2]; [4],3
same,No. of Subjects That Experienced a Treatment-Emergent Adverse the Category: Metabolism or nutrition disorder,[2]; [4],1
same,No. of Subjects That Experienced a Treatment-Emergent Adverse the Category: Musculoskeletal and connective tissue disorder,[2]; [4],5
same,No. of Subjects That Experienced a Treatment-Emergent Adverse the Category: Nervous system disorder,[2]; [4],7
same,No. of Subjects That Experienced a Treatment-Emergent Adverse the Category: Not coded,[2]; [4],4
same,No. of Subjects That Experienced a Treatment-Emergent Adverse the Category: Psychiatric disorder,[2]; [4],2
same,No. of Subjects That Experienced a Treatment-Emergent Adverse the Category: Reproductive system or breast disorder,[2]; [4],1
same,"No. of Subjects That Experienced a Treatment-Emergent Adverse the Category: Respiratory, thoracic, or mediastinal disorder",[2]; [4],2
same,No. of Subjects That Experienced a Treatment-Emergent Adverse the Category: Skin and subcutaneous tissue disorder,[2]; [4],7
same,No. of Subjects That Experienced a Treatment-Emergent Adverse the Category: Vascular disorder,[2]; [4],1
same,safety profile,"[2]; administered according to study protocol, 600 mg/day oral, 24 weeks",good safety profile
same,total treatment-emergent adverse events observed,"[2]; from 100 subjects, combined placebo + Compound 1 patients",83
same,subjects reporting at least one treatment-emergent adverse event,"[2]; of 100 subjects, combined placebo + Compound 1 patients",41
